# Experimental data from PMC11191095, “QSAR Reveals Decreased Lipophilicity of Polar Residues Determines the Selectivity of Antimicrobial Peptide Activity” (ACS Omega, 2024).
# Where a SMILES comes first, the peptide text is derived from it.
# Key:
# Assay in all cases: microbe, parasite or virus in culture
# [1] = tested on: E. coli LEC001; assay type: cell-based, Escherichia coli; settings: E. coli LEC001 (R)
# In short: (§1)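 Peptides 128→2 μg/mL, 2-fold series; inoculum ~5 × 10^5 CFU/mL from overnight culture (OD600 0.01, mixed 1:1). MHB non-cation-adjusted for bacteria, RPMI 1640 + 2% glucose for fungi. 37 °C, 20 h, OD600. MIC50/MIC90 at 50%/90% inhibition; n ≥ 3.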
# [2] = tested on: E. coli NCTC 12923; assay type: cell-based, Escherichia coli; settings: E. coli NCTC 12923 (S)
# In short: as §1
# [3] = tested on: A. baumannii ATCC 17978; assay type: cell-based, Acinetobacter baumannii; settings: A. baumannii ATCC 17978 (S)
# In short: as §1
# [4] = tested on: A. baumannii AYE; assay type: cell-based, Acinetobacter baumannii; settings: A. baumannii AYE (R)
# In short: as §1
# [5] = tested on: K. pneumoniae M6; assay type: cell-based, Klebsiella pneumoniae; settings: K. pneumoniae M6 (S)
# In short: as §1
# [6] = tested on: K. pneumoniae NCTC 13368; assay type: cell-based, Klebsiella pneumoniae; settings: K. pneumoniae NCTC 13368 (R)
# In short: as §1
# [7] = tested on: S. aureus (MRSA) 1199B; assay type: cell-based, Staphylococcus aureus; settings: S. aureus (MRSA) 1199B (R)
# In short: as §1
# [8] = tested on: S. aureus (MRSA) NCTC 13616; assay type: cell-based, Staphylococcus aureus; settings: S. aureus (MRSA) NCTC 13616 (R)
# In short: as §1
# [9] = tested on: S. aureus (MRSA) USA300; assay type: cell-based, Staphylococcus aureus; settings: S. aureus (MRSA) USA300 (R)
# In short: as §1
# [10] = tested on: S. aureus (MSSA) ATCC 9144; assay type: cell-based, Staphylococcus aureus; settings: S. aureus (MSSA) ATCC 9144 (S)
# In short: as §1
# [11] = tested on: C. auris TDG 1912; assay type: cell-based, Candida auris; settings: C. auris TDG 1912
# In short: as §1
# [12] = tested on: C. albicans NCPF 3281; assay type: cell-based; settings: C. albicans NCPF 3281
# In short: as §1
# [13] = tested on: C. glabrata NCPF 8018; assay type: cell-based; settings: C. glabrata NCPF 8018
# In short: as §1
# [14] = tested on: C. krusei NCPF 3876; assay type: cell-based; settings: C. krusei NCPF 3876
# In short: as §1
# [15] = tested on: C. parapsilosis NCPF 3209; assay type: cell-based; settings: C. parapsilosis NCPF 3209
# In short: as §1
# [16] = tested on: C. tropicalis NCPF 8760; assay type: cell-based; settings: C. tropicalis NCPF 8760
# In short: as §1
# [17] = MHB, 37 °C, 20 h, OD600, min. three biological repeats
# [18] = MHB, ~5×10^5 CFU/mL, 37 °C, 20 h, OD600, min. three biological repeats
# [19] = 50% growth inhibition, RPMI 1640 + 2% glucose, 37 °C, 20 h, OD600
# [20] = 90% growth inhibition, RPMI 1640 + 2% glucose, 37 °C, 20 h, OD600
# [21] = 50% growth inhibition, RPMI 1640 + 2% glucose, 37 °C, 20 h
# [22] = 90% growth inhibition, RPMI 1640 + 2% glucose, 37 °C, 20 h
structure (smiles),measurement,setting,value
CC[C@H](C)[C@H](NC(=O)[C@H](CCCCN)NC(=O)[C@H](CC(C)C)NC(=O)[C@H](C)NC(=O)[C@H](C)NC(=O)[C@H](CCCCN)NC(=O)[C@H](CC(C)C)NC(=O)[C@H](C)NC(=O)[C@@H](N)CCCCN)C(=O)NCC(=O)N[C@@H](C)C(=O)N[C@@H](CC(N)=O)C(N)=O [CPF-P3-12a] (H-KALKAALKIGAN-NH2),Modal MIC,[1]; [17],> 128 mg/L
same,Modal MIC,[1]; shown in µM,> 103.8 µM
same,Modal MIC,[2]; [18],> 128 mg/L
same,Modal MIC,[2]; shown in µM,> 103.8 µM
same,Modal MIC,[3]; [17],> 128 mg/L
same,Modal MIC,[3]; shown in µM,> 103.8 µM
same,Modal MIC,[4]; [17],> 128 mg/L
same,Modal MIC,[4]; shown in µM,> 103.8 µM
same,Modal MIC,[5]; [17],> 128 mg/L
same,Modal MIC,[5]; shown in µM,> 103.8 µM
same,Modal MIC,[6]; [17],> 128 mg/L
same,Modal MIC,[6]; shown in µM,> 103.8 µM
same,Modal MIC,[7]; [17],> 128 mg/L
same,Modal MIC,[7]; shown in µM,> 103.8 µM
same,Modal MIC,[8]; [17],> 128 mg/L
same,Modal MIC,[8]; shown in µM,> 103.8 µM
same,Modal MIC,[9]; [17],> 128 mg/L
same,Modal MIC,[9]; shown in µM,> 103.8 µM
same,Modal MIC,[10]; [17],> 128 mg/L
same,Modal MIC,[10]; shown in µM,> 103.8 µM
same,Modal MIC50,[11]; [19],> 128 mg/L
same,Modal MIC90,[11]; [20],> 128 mg/L
same,Modal MIC50,[11]; shown in µM,> 103.8 µM
same,Modal MIC90,[11]; shown in µM,> 103.8 µM
same,Modal MIC50,[12]; [21],> 128 mg/L
same,Modal MIC90,[12]; [22],> 128 mg/L
same,Modal MIC50,[12]; shown in µM,> 103.8 µM
same,Modal MIC90,[12]; shown in µM,> 103.8 µM
same,Modal MIC50,[13]; [21],> 128 mg/L
same,Modal MIC90,[13]; [22],> 128 mg/L
same,Modal MIC50,[13]; shown in µM,> 103.8 µM
same,Modal MIC90,[13]; shown in µM,> 103.8 µM
same,Modal MIC50,[14]; [21],> 128 mg/L
same,Modal MIC90,[14]; [22],> 128 mg/L
same,Modal MIC50,[14]; shown in µM,> 103.8 µM
same,Modal MIC90,[14]; shown in µM,> 103.8 µM
same,Modal MIC50,[15]; [21],> 128 mg/L
same,Modal MIC90,[15]; [22],> 128 mg/L
same,Modal MIC50,[15]; shown in µM,> 103.8 µM
same,Modal MIC90,[15]; shown in µM,> 103.8 µM
same,Modal MIC50,[16]; [21],> 128 mg/L
same,Modal MIC90,[16]; [22],> 128 mg/L
same,Modal MIC50,[16]; shown in µM,> 103.8 µM
same,Modal MIC90,[16]; shown in µM,> 103.8 µM
CC[C@H](C)[C@H](NC(=O)CNC(=O)[C@@H](N)CCCNC(=N)N)C(=O)N[C@@H](CCCNC(=N)N)C(=O)NCC(=O)N[C@@H](Cc1ccc(O)cc1)C(=O)N[C@@H](CCCCN)C(=O)NCC(=O)NCC(=O)N[C@@H](Cc1ccc(O)cc1)C(=O)N[C@@H](CS)C(=O)N[C@H](C(=O)NCC(=O)N[C@@H](CCCNC(=N)N)C(=O)N[C@@H](Cc1ccccc1)C(=O)N[C@@H](CCCCN)C(=O)N[C@@H](CCC(N)=O)C(=O)N[C@H](C(=O)N[C@@H](CS)C(=O)N[C@@H](CCCCN)C(=O)N[C@@H](CS)C(=O)N[C@@H](Cc1ccc(O)cc1)C(=O)O)[C@@H](C)O)[C@@H](C)O [OmDefB] (H-RGIRGYKGGYCTGRFKQTCKCY-OH; N-terminus and C-terminus assumed),Modal MIC,[1]; [17],> 128 mg/L
same,Modal MIC,[1]; shown in µM,> 49.9 µM
same,Modal MIC,[2]; [18],> 128 mg/L
same,Modal MIC,[2]; shown in µM,> 49.9 µM
same,Modal MIC,[3]; [17],> 128 mg/L
same,Modal MIC,[3]; shown in µM,> 49.9 µM
same,Modal MIC,[4]; [17],> 128 mg/L
same,Modal MIC,[4]; shown in µM,> 49.9 µM
same,Modal MIC,[5]; [17],> 128 mg/L
same,Modal MIC,[5]; shown in µM,> 49.9 µM
same,Modal MIC,[6]; [17],> 128 mg/L
same,Modal MIC,[6]; shown in µM,> 49.9 µM
same,Modal MIC,[7]; [17],> 128 mg/L
same,Modal MIC,[7]; shown in µM,> 49.9 µM
same,Modal MIC,[8]; [17],> 128 mg/L
same,Modal MIC,[8]; shown in µM,> 49.9 µM
same,Modal MIC,[9]; [17],> 128 mg/L
same,Modal MIC,[9]; shown in µM,> 49.9 µM
same,Modal MIC,[10]; [17],> 128 mg/L
same,Modal MIC,[10]; shown in µM,> 49.9 µM
same,Modal MIC50,[11]; [19],> 128 mg/L
same,Modal MIC90,[11]; [20],> 128 mg/L
same,Modal MIC50,[11]; shown in µM,> 49.9 µM
same,Modal MIC90,[11]; shown in µM,> 49.9 µM
same,Modal MIC50,[12]; [21],> 128 mg/L
same,Modal MIC90,[12]; [22],> 128 mg/L
same,Modal MIC50,[12]; shown in µM,> 49.9 µM
same,Modal MIC90,[12]; shown in µM,> 49.9 µM
same,Modal MIC50,[13]; [21],> 128 mg/L
same,Modal MIC90,[13]; [22],> 128 mg/L
same,Modal MIC50,[13]; shown in µM,> 49.9 µM
same,Modal MIC90,[13]; shown in µM,> 49.9 µM
same,Modal MIC50,[14]; [21],> 128 mg/L
same,Modal MIC90,[14]; [22],> 128 mg/L
same,Modal MIC50,[14]; shown in µM,> 49.9 µM
same,Modal MIC90,[14]; shown in µM,> 49.9 µM
same,Modal MIC50,[15]; [21],> 128 mg/L
same,Modal MIC90,[15]; [22],> 128 mg/L
same,Modal MIC50,[15]; shown in µM,> 49.9 µM
same,Modal MIC90,[15]; shown in µM,> 49.9 µM
same,Modal MIC50,[16]; [21],> 128 mg/L
same,Modal MIC90,[16]; [22],> 128 mg/L
same,Modal MIC50,[16]; shown in µM,> 49.9 µM
same,Modal MIC90,[16]; shown in µM,> 49.9 µM
